Measurements from patent US7906516B2, “Carbonyl compounds” (Merck Patent GmbH, priority 2003, dated 2011).

System: not given
Assay: not given

Compound | melting point [°C]
O=C(Nc1ccc(N2CCOCC2=O)cc1)[C@H]1C[C@@H](O)CN1C(=O)/C=C/c1ccc(Cl)s1 | 151
O=C(Nc1ccc(N2CCOCC2=O)cc1)[C@H]1C[C@@H](O)CN1C(=O)Cc1ccc(Cl)cc1 | 141
CCO[C@@H]1C[C@H](C(=O)Nc2ccc(N3CCOCC3=O)c(C)c2)N(C(=O)Nc2ccc(Cl)cc2)C1 | 117
O=C(NC1CCC(N2CCOCC2=O)CC1)[C@H]1C[C@@H](O)CN1C(=O)Nc1ccc(Cl)cc1 (stereo partly shown) | 245
O=C(Nc1ccc(N2CCOCC2=O)cc1)[C@H]1CCCN1C(=O)c1ccc(Cl)s1 [AB1, N-[4-(3-oxomorpholin-4-yl)phenyl]-(R)-1-(5-chlorothiophene-2-carbonyl)-pyrrolidine-2-carboxamide] | 195

Second part, the compound after the results:

melting point [°C] | Compound
133 | CO[C@@H]1C[C@H](C(=O)Nc2ccc(N3CCOCC3=O)cc2)N(C(=O)Nc2ccc(Cl)cc2)C1
129 | CC(C)C(=O)O[C@@H]1C[C@H](C(=O)Nc2ccc(N3CCOCC3=O)cc2)N(C(=O)Nc2ccc(Cl)cc2)C1
154 | O=C1C[C@H](C(=O)Nc2ccc(N3CCOCC3=O)cc2)N(C(=O)Nc2ccc(Cl)cc2)C1
245 | O=C(Nc1ccc(N2CCOCC2=O)cc1)[C@H]1C=CCN1C(=O)Nc1ccc(Cl)cc1
227.6 | O=C(Nc1ccc(N2CCOCC2=O)cc1)[C@H]1CCCN1C(=O)Nc1ccc(Cl)cc1 [Compound A1, 1-N-[(4-chlorophenyl)]-2-N-{[4-(3-oxomorpholin-4-yl)phenyl]}-(R)-pyrrolidine-1,2-dicarboxamide]

Molecular target: FXa (Homo sapiens, UniProt P00742)
Assay: Factor Xa inhibition (FXa-IC50)
Type: biochemical

Chain of FXa (P00742 235-488 limits assumed): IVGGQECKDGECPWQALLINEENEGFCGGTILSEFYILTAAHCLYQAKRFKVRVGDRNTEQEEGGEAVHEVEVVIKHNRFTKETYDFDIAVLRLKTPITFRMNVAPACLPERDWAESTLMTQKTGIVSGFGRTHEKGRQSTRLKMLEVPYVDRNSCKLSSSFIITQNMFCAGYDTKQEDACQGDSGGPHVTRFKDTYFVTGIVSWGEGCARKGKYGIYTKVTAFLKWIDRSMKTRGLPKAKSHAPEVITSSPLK
Chain of FXa (P00742 41-179 partner limits assumed): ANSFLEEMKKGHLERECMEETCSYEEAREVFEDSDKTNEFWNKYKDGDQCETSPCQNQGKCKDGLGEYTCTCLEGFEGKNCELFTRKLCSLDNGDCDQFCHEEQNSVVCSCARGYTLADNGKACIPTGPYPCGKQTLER

Compound | IC50 [nM]
O=C(Nc1ccc(N2CCOCC2=O)cc1)[C@H]1COCN1C(=O)Nc1ccc(Cl)cc1 [Compound A2, 3-N-[(4-chlorophenyl)]-4-N-{[4-(3-oxomorpholin-4-yl)phenyl]}-(R)-oxazolidine-3,4-dicarboxamide] | 27

Molecular target: TF/FVIIa (Homo sapiens, UniProt P08709)
Assay: TF/factor VIIa inhibition (TF/FVIIa-IC50)
Type: biochemical

Chain of TF/FVIIa (P08709 213-466 limits assumed): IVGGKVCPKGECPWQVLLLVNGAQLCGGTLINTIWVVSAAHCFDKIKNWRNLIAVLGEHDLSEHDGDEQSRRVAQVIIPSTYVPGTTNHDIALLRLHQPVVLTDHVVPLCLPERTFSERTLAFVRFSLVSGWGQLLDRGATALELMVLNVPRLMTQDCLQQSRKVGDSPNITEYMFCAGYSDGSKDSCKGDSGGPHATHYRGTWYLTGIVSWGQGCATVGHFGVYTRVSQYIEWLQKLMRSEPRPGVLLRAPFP
Chain of TF/FVIIa (P08709 61-212 partner limits assumed): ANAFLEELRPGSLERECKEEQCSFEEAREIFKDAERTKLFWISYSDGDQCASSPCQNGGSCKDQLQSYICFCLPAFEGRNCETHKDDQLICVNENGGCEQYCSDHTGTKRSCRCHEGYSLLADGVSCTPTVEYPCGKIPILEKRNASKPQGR
Chain of TF/FVIIa (P13726 33-295 partner): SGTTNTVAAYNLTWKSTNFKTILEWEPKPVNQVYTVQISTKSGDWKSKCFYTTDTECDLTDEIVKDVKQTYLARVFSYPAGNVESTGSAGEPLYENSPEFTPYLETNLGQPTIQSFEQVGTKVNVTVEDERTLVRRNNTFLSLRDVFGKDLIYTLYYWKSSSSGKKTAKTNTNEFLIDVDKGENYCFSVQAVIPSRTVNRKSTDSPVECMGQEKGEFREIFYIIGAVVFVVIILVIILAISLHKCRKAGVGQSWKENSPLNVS

Compound | IC50 [nM]
O=C(Nc1ccc(N2CCOCC2=O)cc1)[C@H]1CCCN1C(=O)c1ccc(Cl)s1 [AB1, N-[4-(3-oxomorpholin-4-yl)phenyl]-(R)-1-(5-chlorothiophene-2-carbonyl)-pyrrolidine-2-carboxamide] | 3900
O=C(Nc1ccc(N2CCOCC2=O)cc1)[C@H]1CCCN1C(=O)Nc1ccc(Cl)cc1 [Compound A1, 1-N-[(4-chlorophenyl)]-2-N-{[4-(3-oxomorpholin-4-yl)phenyl]}-(R)-pyrrolidine-1,2-dicarboxamide] | 23
